Data taken from patent publication US20030223978A1, “Conjugates of an AMF ligand and a cytotoxic molecule for use in cancer therapy” (priority 1998, published 2003).

Assays:
[1] = test system: B16-F10 metastatic murine melanoma cell line; experiment: Cell toxicity of AMF-doxorubicin conjugate; assay type: cell-based; conditions: approximately 0.3, 3, or 30 μg/ml; 3 (Expt. 1) or 4 days (Expt. 2); increasing concentrations
Protocol: Rabbit PHI is internalized by murine NIH-3T3 fibroblasts (Benlimame et al., 1998, Molec. Biol. Cell 9: 1773-1786) and the ability of the AMF-doxorubicin conjugate to kill metastatic tumor cells was tested with the B16-F10 metastatic murine melanoma cell line. B16-F10 cells were plated at a density of 4,000 cells/cm2 and after 24 hours in culture AMF-doxorubicin conjugate was added at a concentration of approximately 0.3, 3, or 30 μg/ml (FIG. 8). After 3 (Expt. 1) or 4 days (Expt. 2) the cultures were fixed and cells remaining attached to the substrate counted. The number of cells remaining attached to the substrate is presented relative to control cells to which no AMF-doxorubicin was added.

NIH-3T3 cells [2] = experiment: bAMF internalization, immunofluorescence and confocal microscopy; assay type: cell-based, mouse
Protocol: For the AMF internalization studies, NIH-3T3 cells were pulsed with biotinylated AMF (˜250-500 μg/ml) and chased at 37° C. for the indicated periods of time prior to fixation by the addition of precooled (−80° C.) methanol/acetone directly to the cells. […] Disruption of clathrin coated pits and vesicles by cytoplasmic acidification was performed essentially as previously described (Heuser, J. (1989) J. Cell Biol. 108, 401-411). NIH-3T3 cells were pretreated with acidification medium (DMEM containing 5% calf serum and 50 mM MES pH 5.5) for 15 minutes at 37° C. prior to addition of bAMF in acidification medium for one hour at 37° C. To ensure that cellular acidification blocked clathrin-mediated endocytosis, Texas Red transferrin (50 μg/ml) was added to cells in regular or acidification medium for 30 minutes at 37° C. after which the cells were fixed with 3% paraformaldehyde.
After labeling the coverslips were mounted in Airvol (Air Products and Chemicals Inc., Allentown, Pa.) and viewed in a Zeiss Axioskop fluorescent microscope equipped with a 63× Plan Apochromat objective and selective filters. Confocal microscopy was performed with the 60× Nikon Plan Apochromat objective of a dual channel BioRad 600 laser scanning confocal microscope equipped with a krypton/argon laser and the corresponding dichroic reflectors to distinguish fluorescein and Texas Red labeling. Confocal images were printed using a Polaroid TX 1500 video printer.

NIH-3T3 cells [3] = experiment: bAMF internalization pathway by post-embedding electron microscopy; assay type: cell-based, mouse
Protocol: Post-embedding immunolabeling for AMF-R was performed as previously described (Benlimame, N. et al. (1995) J. Cell Biol. 129, 459-471). Cells grown on petri dishes were rinsed and incubated at 37° C. in Ringer's solution for 15 minutes before fixing in Ringer's solution containing 2% paraformaldehyde and 0.2% glutaraldehyde for 30 minutes at 37° C. The fixed cells were rinsed in PBS/CM, scraped from the petri dish and collected by centrifugation. The cell pellet was post-fixed for 30 minutes with 1% osmium tetroxide in PBS/CM containing 1.5% potassium ferrocyanide (reduced osmium), dehydrated and embedded in LR-White resin. […] The numerical density of gold particles associated with plasma membrane, caveolae, clathrin coated pits and vesicles, smooth tubules and vesicles, and rough ER was determined. The length of the limiting membrane of the indicated organelles was measured using a Sigma-Scan measurement system and the gold particles associated with these organelles counted. […] Control labeling with non-immune rat IgM antibodies was analyzed similarly.
To follow the endocytic pathway of AMF by electron microscopy, biotinylated AMF was internalized as described for the fluorescence studies and detected by postembedding labeling with streptavidin conjugated to 10 nm gold as described above.

AMF-R = target: T1, AMF-R (Mus musculus, UniProt Q9R049); experiment: Cell surface labeling of viable cells at 4° C. with bAMF and anti-AMF-R; assay type: binding; conditions: viable NIH-3T3 cells, confocal
T1 construct: Confocal imaging of cell surface labeling of viable NIH-3T3 cells at 4° C. with bAMF; endogenous in cells; host or cells: NIH-3T3 fibroblasts (ATCC, a highly spread clone)
Protocol: Cells were plated on glass cover slips 2 days prior to each experiment at a concentration of 30,000 cells/35 mm dish. For AMF-R surface labeling, the cells were incubated in DMEM minus bicarbonate supplemented with 25 mM Hepes pH 7.2 and 2.5% serum for 15 min at 4° C. prior to labeling with anti-AMF-R primary antibody or biotinylated AMF at 4° C. for 30 min. The cells were washed at 4° C. and then fixed with 3% paraformaldehyde in phosphate buffered saline (pH 7.4) supplemented with 0.1 mM Ca++ and 1 mM Mg++ (PBS/CM) for 15 min at room temperature. For caveolin labeling, after AMF-R surface labeling at 4° C. and fixation as above, the cells were permeabilized with 0.2% Triton X-100 for 10 min, then extensively washed with PBS/CM containing 1% BSA. The cells were incubated with rabbit anti-caveolin polyclonal antibodies, washed, and then incubated with FITC goat anti-rat IgM to reveal anti-AMF-R and Texas Red donkey anti-rabbit IgG to reveal anti-caveolin.

T1 sequence (Q9R049 whole entry): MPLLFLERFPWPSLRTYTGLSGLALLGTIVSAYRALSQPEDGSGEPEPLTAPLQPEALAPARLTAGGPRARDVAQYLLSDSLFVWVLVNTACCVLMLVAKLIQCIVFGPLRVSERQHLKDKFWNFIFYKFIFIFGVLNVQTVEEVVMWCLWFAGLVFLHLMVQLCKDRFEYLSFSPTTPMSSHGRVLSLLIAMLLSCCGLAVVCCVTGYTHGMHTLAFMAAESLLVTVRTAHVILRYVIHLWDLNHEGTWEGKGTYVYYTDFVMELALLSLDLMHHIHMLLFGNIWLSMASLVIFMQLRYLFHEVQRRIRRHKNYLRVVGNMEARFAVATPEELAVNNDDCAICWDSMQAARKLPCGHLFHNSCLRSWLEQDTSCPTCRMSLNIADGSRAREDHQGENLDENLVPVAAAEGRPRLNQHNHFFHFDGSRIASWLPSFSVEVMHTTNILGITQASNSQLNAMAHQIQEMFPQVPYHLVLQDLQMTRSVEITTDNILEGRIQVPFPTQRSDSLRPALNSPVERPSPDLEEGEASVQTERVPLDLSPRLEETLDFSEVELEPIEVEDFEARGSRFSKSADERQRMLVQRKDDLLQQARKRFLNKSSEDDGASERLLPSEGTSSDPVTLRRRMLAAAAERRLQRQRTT

In the case of “AMF-doxorubicin: commercially available PHI (AMF) conjugated to the cellular toxin doxorubicin by glutaraldehyde mediated crosslinking”, the “number of cells remaining attached to the substrate relative to control cells” value [1] is reported as “progressive toxicity”.

In the case of “bAMF: Rabbit phosphohexose isomerase (AMF) biotinylated with NHS-LC-biotin”, the “localization of internalized bAMF” value (NIH-3T3 cells [2]; 1 hour at 37° C., 10-fold excess unlabeled AMF) is reported as “localized only to punctate structures”, the “localization of internalized bAMF” value (NIH-3T3 cells [2]; 1 hour at 37° C., medium acidified to pH 5.5 (clathrin-mediated endocytosis disrupted)) is reported as “localized to tubules which colocalize with AMF-R tubules” and the “localization of internalized bAMF” value (NIH-3T3 cells [2]; 1 hour pulse at 37° C., regular medium) is reported as “localized to tubular structures which colocalize with AMF-R tubules”. The “localization of internalized bAMF” value (NIH-3T3 cells [2]; two hour pulse, chase of 2 or 4 hours) was “accumulation of bAMF labeling in tubular structures which colocalized with AMF-R tubules”, the “localization of bAMF by streptavidin-10 nm gold” value (NIH-3T3 cells [3]; 10 minute pulse at 37° C.) was “localized to cell surface caveolae” and the “localization of bAMF by streptavidin-10 nm gold” value (NIH-3T3 cells [3]; 30 minute pulse at 37° C.) was “localized to caveolae and smooth vesicles”. For the same substance, the “colocalization of cell surface bAMF with anti-AMF-R labeling” value (AMF-R) was “high degree of colocalization”.
